In ChEMBL document CHEMBL1126918, “Analysis of two cycloplatinated compounds derived from N-(4-methoxyphenyl)-alpha-benzoylbenzylidenamine. Comparison of the activity of these compounds with other isostructural cyclopalladated compounds” (J Med Chem, 1993):

How the values were obtained:
[1] = test system: MDA-MB-468; experiment: Tested for inhibition against mammary cancer MDA-MB 468 (breast carcinoma) cell lines; assay type: functional, cell-based; conditions: Homo sapiens
[2] = test system: HL-60; experiment: Tested for inhibition against leukemic HL-60 (human cancer) cell lines; assay type: functional, cell-based

CISPLATIN
ID50 [1]: 3300 nM | ID50 [2]: 2300 nM
